Data set [1] can be described thus: Stability in human serum. The class given is in vitro ADME. As to conditions: 31P NMR.
The test system of data set [2] is HTLV-IIIB virus (HIV) in ATH8 cells. Description: HIV cytopathic effect inhibition in ATH8 cells. Format: cell-based. As to conditions: for anti-HIV activity / protection against cytopathic effect: ATH8 cells. The procedure:
Because it is possible that inter-assay variation may create an inappropriate comparison of antiviral activity among agents, experiments were performed simultaneously to make more precise comparisons.
After a number of days in culture, generally 7-10 days, either substantial cell death due to HIV infection (HIV cytopathic effect) or the protective effect of oligos against the cytopathicity of HIV was observed.
In general terms: Protection from cytopathic effect is a common read-out in antiviral testing.

A short description of data set [3]: Stability in in vitro test media followed by 31P NMR. The class given is in vitro ADME. An excerpt:
The phosphorothioate oligodeoxynucleotides of the present invention have suitable chemical characteristics, namely, the ability to hybridize with complementary DNA/mRNA under physiological conditions, and better solubility properties relative to methylphosphonates. Moreover, the thioesters are as soluble in biological media as the parent compounds.
Thus, it is believed that it is mainly the relative resistance of the phosphorothioate analogs to nucleases that preserves them relative to n-ODNs, and allows them to reach and remain at their target site. This was supported in relation to the media used in the in vitro test system by following the 31P NMR spectra of the n-ODN-1 and S-ODN-1 compounds as a function of time.

Data set [4] concerns p24 gag protein of HIV. Briefly: HIV gag protein expression in chronically HIV-infected H9 cells (indirect immunofluorescence). The class given is cell-based. To be noted: up to 25 micromoles, 120 hours. How it is done:
The percentage of cells expressing p24 gag protein of HIV was determined by indirect immunofluorescence microscopy by using anti-HIV p24 murine monoclonal antibody.
Generally, it has been assumed that anti-sense sequences inhibit the expression of various genes by translation arrest, i.e. that they bind to mRNA and block its translation. In order to test this possibility, gag protein synthesis was analyzed in chronically HIV-infected and -producing H9 cells by indirect immunofluorescent assay under a microscope. […] Alternatively, the level of any translation arrest could have been below the threshold of detection by indirect immunofluorescent assay under a microscope. […] Therefore, one mechanism for the antiviral effect could depend on blocking viral replication perhaps prior to, or at the stage of, pro-viral DNA synthesis.

In data set [5] the test system is de novo HIV DNA synthesis. Briefly: Southern blot analysis of de novo HIV DNA synthesis in ATH8 cells. Format: cell-based. From the text:
Target cells (1×10^7 ATH8 cells) were pretreated with or without S-dC28 at various concentrations for sixteen hours, then treated with Polynrene, exposed to HIV (500 virus particles per cell), resuspended, and cultured in the presence or absence of S-dC28. On days 4 and 7 following the exposure to the virus, high molecular weight DNA was extracted, digested with Asp718 (a Kpn I isoschizomer from Boehringer-Mannheim, Indianapolis, Ind.), and subjected to Southern blot analysis hybridized with a labelled insert of molecular clone of the env region of HTLV-III (BH10) containing a 1.3 Kb Bgl II fragment.
On days 4 and 7 following the exposure to the virus, a substantial amount of viral DNA was detected by Southern blot analysis without antiviral agents.
On day 4, shown in lanes A-E, and day 7, shown in lanes F-J, following exposure to the virus, high molecular weight DNA was extracted. Lanes A and F contain DNA from ATH8 cells that were exposed to the virus and not protected by S-dC28. Lanes B and G, C and H, D and I, contain DNA from ATH8 cells pretreated and cultured with 1 micromole, 5 micromoles, and 7 micromoles S-dC28, respectively. Lanes E and J contain DNA from ATH8 cells treated with 50 micromoles 2',3'-dideoxyadenonsine, and lane K contains DNA from ATH8 cells that was not exposed to the virus.

Data set [6] concerns S1 nuclease. Description: Nuclease susceptibility, S1 nuclease. Format: in vitro ADME. From the text:
(§1) Several oligodeoxynucleotides were studied with regard to DNase sensitivity, cf. Table 5. These include cytidine homopolymers, ODN-4 (an anti-message 38-mer complementary to the 3' region of the art/trs region of HIV BH10 clone), and myc-1 (a 15-mer complementary to the initiation codon region of the C-myc oncogene). The DNases employed were predominantly endonuclease S1, the exo- and endonuclease P1, and snake venom (SV) phosphodiesterase. The concentration of S1 nuclease was ten-fold higher ([…]) for reactions of olifo-dC, since both the normal and PS analog were degraded extremely slowly be this enzyme. S1 and P1 nuclease digestion proceeded at 2-45 times more slowly for the S-ODNs than for the normal oligomers, with the […] being somewhat more readily digested than the 28-mer.

Data set [7] concerns P1 nuclease. Description: Nuclease susceptibility, P1 nuclease. The class given is in vitro ADME.
Description: as §1

In data set [8] the test system is T4 molecule in T4 cells (H9 cells). Briefly: HIV binding to T4 molecule in H9 cells (radiolabelled virus). The procedure:
(§2) The possibility that the S-ODN analogs may interfere with HIV binding to target cells was tested.

Data set [9] has as its system T4, HLA-DR, T8, T3, or Tac antigen on ATH8 cells. Description: Surface antigens of ATH8 cells by fluorescent-activated cytofluorometry. The class given is cell-based. As to conditions: i micromole, sixteen hours. How it is done: as §2
Data set [10] in a line: Solubility. The class given is physicochemical. To be noted: acetate salts. From the text: Oligodeoxynucleotides with blocks of phosphorothioates at the 3' or 5' ends were synthesized by automatically changing the oxidation cycle at the required point. […] Introduction of a small amount of ammonia vapor, not aqueous ammonia, by a Pasteur pipette solubilized all the solids. The yield determined from absorbance at lambda max was about 30%.

In data set [11] the test system is gamma-interferon. Briefly: Induction of gamma-interferon in culture supernatant. Format: cell-based. An excerpt: Another mechanism which should be considered is induction of interferon production such as that proposed for phophorothioate analogs of poly-r(I-C). […] Also, since there are no data to support the concept that phosphorothioate internucleotide linkages have a thiol character, and can thus form disulfides, the mechanism of action would likely be different from that proposed for antiviral polynucleotides having thiolated bases such as 5-mercapto-cytosine or -uracil.

Data set [12] has as its system HL60 cells. Briefly: Inhibition of HL60 cell proliferation (cell count). The class given is cell-based.
Data set [13] has as its system HL60 cells. Description: DNA synthesis in HL60 cells (3H-thymidine incorporation). The class given is cell-based. As to conditions: FIG. 4, 50 uM, day 1. How it is done: To obtain the results shown in FIG. 4, nonsense or antisense S-ODNs were added at a final concentration of 50 uM on day 0 to cells seeded at 3×10^5/ml. DNA synthesis was determined on day 1 by incubating cells with 1 uCi 3H-thymidine for 4 hours, after which time 10% trichloroacetic acid was added and acid precipitatable radioactivity was trapped on Whatman glass fiber filters. The filters were subjected to liquid scintillation counting to determine levels of radioactivity.
On the technique in general: Dividing cells build labelled thymidine or BrdU into new DNA.

“Also recorded” adds a separate entry of the source. Oligonucleotides are written 5' to 3', each unit as a sugar letter and its base; * is a phosphorothioate linkage, no mark a phosphodiester; rarer units and linkages stand in square brackets, end groups in braces. Plain capitals give the bases only. d = 2'-deoxy (DNA)

On to “dAACGTTGAGGGGCAT [O-myc-1, reference compound]”, for which the “half-life in 50% human serum” value in data set [1] is “two to three”.

For the molecule “d-(Ts Cs Gs Ts Cs Gs Cs Ts Gs Ts Cs Ts Cs C) [S-ODN-1]”, the “anti-HIV activity / protection against cytopathic effect” value (shortened to “anti-HIV activity / protection”) in data set [2] was “substantial activity against HIV; also recorded: protected against HIV”. Moreover, in data set [3] (10 days), the phosphorothioate bonds intact entry is recorded as “still intact after 10 days”. In data set [3] (a week), the degradation result is given as “no significant degradation even after a week”. In data set [3] (after 10 days), the “decomposition based on the total signal intensity” value is recorded as “less than 5%”.

Turning to (dC)n n = 28 [S-dC28], in data set [2] (0.5 micromoles), the “protection against the virus” value was “complete protection against the virus; also recorded: complete antiviral activity”. For the same molecule, in data set [2] (3 micromoles), the “inhibition of viral replication and protection of ATH8 cells” value turned out to be 100%. In addition, the “anti-HIV activity / protection” value in [2] is “the most consistent and durable antiviral effects; also recorded: one of the most potent analogs tested”. Besides, the “therapeutic index (ratio of cytotoxic to effective concentration)” value in [2] (in vitro) is “comparable in vitro index to those of dideoxycytidine and dideoxyadenosine”. For the same molecule, the “gag protein positivity” value in data set [4] is reported as “failed to reduce gag protein positivity; also recorded: did not inhibit gag protein positivity”. Also, the “2.7 Kb env-containing internal KPN I fragment of virus genome” value in [5] (1, 5 and 7 micromoles S-dC28 (lanes B-D, G-I), days 4 and 7) was “detected only in lanes A and F”. The “lowest concentration with complete inhibition of de novo synthesis of HIV DNA” value in data set [5] (Southern blot) was found to be 1 µmol. Moreover, the “lowest concentration significantly inhibiting de novo synthesis of viral DNA” value in data set [5] (Southern blot, days 4 and 7) worked out at 1 µM. For the same molecule, the “Ratio t1/2 PSoligo/t1/2 POoligo” value is 2 in data set [6] (oligo-dC, ten-fold higher S1 concentration) and 15 in data set [7]. Moreover, in data set [8], the “inhibition of HIV binding to T4 molecule” value was “No inhibition”. In [9], the “changes in T4, HLA-DR, T8, T3, or Tac antigen” value was “no detectable changes”. Also, the “solubility in 1M NaCl” value in data set [10] is on record as “extremely insoluble in 1M NaCl”.

For the molecule (dC)n n = 14 [S-dC14], the “protection against the virus” value in data set [2] (5 micromoles) was “only a moderate effect”. For the same molecule, the “anti-HIV activity / protection” value in data set [2] is on record as “the most potent antiviral compound among those tested”; in [2] (listed as 14-mer oligo-dC), “substantial protection against HIV cytopathic effect”. In addition, in data set [11], the induction of gamma-interferon entry is “No induction of gamma-interferon”.

`Nc1ccn([C@H]2CC[C@@H](CO)O2)c(=O)n1` [2',3'-dideoxycytidine, reference compound]: the “protection against the virus” value in data set [2] (0.5 micromoles) is on record as “complete antiviral activity”.

In the case of “d-(Gs Gs As Gs As Cs As Gs Cs Gs As Cs Gs A) [S-ODN-2]”, the “anti-HIV activity / protection” value in [2] is reported as “protected against HIV”.

Regarding `Nc1ncnc2c1ncn2[C@H]1CC[C@@H](CO)O1` [2',3'-dideoxyadenosine, reference compound], the “2.7 Kb env-containing internal KPN I fragment of virus genome” value in [5] (50 micromoles (lanes E, J), days 4 and 7) is “detected only in lanes A and F”. Also, in data set [5] (Human immunodeficiency virus 1, ATH-8, Southern blot, days 4 and 7, read-out: lowest concentration significantly inhibiting de novo synthesis of viral DNA), the minimal effective concentration was determined as 1 µM.

Consider “nonsense S-ODN: 5'-CTG AAG TGG CAT GAG; non-sense, same composition as anti-sense but in random sequence (dC*dT*dG*dA*dA*dG*dT*dG*dG*dC*dA*dT*dG*dA*dG) [reference compound]”, for which the “inhibition of cell proliferation (cell count)” value in data set [12] (HL60 cells) is “not all nonsense S-ODN concentrations affected cell proliferation”; in data set [12] (HL60 cells, listed as non-sense sequence) it was “none of the controls used, namely, the non-sense sequence, has shown similar activity”.

Turning to dAACGTTGAGGGGCAT [S-myc-1], in data set [12] (0.1 micro M, FIG. 3), the “effect on cell proliferation” value is listed as “effective”. Moreover, in [12] (HL60 cells), the “concentration relative to that required for the normal oligomer” value is “less than 1%”. The “inhibition of cell proliferation (cell count)” value in [12] (HL60 cells, listed as anti-sense sequence) was “significant inhibition of cell proliferation”; in data set [12] (HL60 cells, listed as phosphorothioate oligodeoxynucleotide analogs of the same anti-sense sequence), “inhibit proliferation of HL60 cells”. Further, the “inhibition of cell proliferation (3H-thymidine incorporation)” value in data set [13] is recorded as “significant inhibition of cell proliferation”. Besides, the “Ratio t1/2 PSoligo/t1/2 POoligo” value in [6] (ODN-4 and myc-1) is recorded as 9; in [7], 4.

B1: recombinant gamma-interferon: recombinant gamma-interferon (protein, UniProt P01579 24-161, looked up)
Interferon gamma: QDPYVKEAENLKKYFNAGHSDVADNGTLFLGILKNWKEESDRKIMQSQIVSFYFKLFKNFKDDQSIQKSVETIKEDMNVKFFNSNKKKRDDFEKLTNYSVTDLNVQRKAIHELIQVMAELSPAAKTGKRKRSQMLFRG
On to B1, for which the “inhibition of cytopathic effect” value in data set [2] (1000 units added directly to cultures) was “did not inhibit the cytopathic effect”.

(Values after patent US5276019A, “Inhibitors for replication of retroviruses and for the expression of oncogene products” (The United States of America as represented by the …, priority 1988, dated 1994).)
